The numbers were not newly measured in US20080085892A1, “Liquid dosage form of acetaminophen” (priority 2006, published 2008), which cites them from elsewhere.

With `COc1ccccc1OCC(O)CO` (centres unmarked) [Guaifenesin, 3-(2-methoxyphenoxy)-1,2-propanediol], the solubility in water entry was “about 5 % wt” and the “solubility in water (in words)” value was “slightly soluble”.
